{"source": "paper PMC7663272", "about": "“Discovery of Tricyclic Pyranochromenone as Novel Bruton’s Tyrosine Kinase Inhibitors with In Vivo Antirheumatic Activity” (International Journal of Molecular Sciences, 2020)", "key": {"[1]": {"test_system": "TNF-α production in LPS-stimulated THP-1 cells", "experiment": "LPS-induced TNF-α release in THP-1 cells (ELISA)", "type": "cell-based, human", "text": "(§1) BTK plays a critical role in high-affinity IgE receptor (FcεRI) and B cell receptor (BCR) signaling, resulting in the release of proinflammatory cytokines. Therefore, BTK inhibitor treatment can reduce the production of both lymphoid and myeloid cytokines. […] We examined the cellular effects of compound 8 on the production of cytokines IL-6 and TNF-α in LPS-stimulated THP-1 cells. Following treatment with LPS alone or LPS and compound 8, the levels of cytokines secreted by THP-1 cells were assessed (Figure 5). LPS increased the output of proinflammatory cytokines.\n(§2) THP-1 cells were obtained from the American Type Culture Collection (ATCC, Manassas, VA, USA). The cells were cultured in RPMI-1640 supplemented with 10% FBS, 1% P/S, and 0.05 mM 2-mercaptoethanol and maintained at 37 °C and 5% CO2 in a humidified incubator. Cytokine secretion (hIL-6 and TNF-α) in the culture supernatants of the THP-1 cells was measured using a human cytokine ELISA kit (Abcam). Differentiated THP-1 cells were treated with agents and LPS for 24 h, after which the cell culture media was centrifuged at 2000× g for 10 min to remove debris. Briefly, each sample (50 μL) or standard was mixed with the appropriate detection antibody and incubated for 1 h at room temperature on a plate shaker. […] Subsequently, 100 μL of stop solution was added to each well, and the optical density (OD) was measured at 450 nm. […]"}, "BTK-wt": {"target": "T1, BTK-wt (Homo sapiens, UniProt Q06187)", "T1 construct": "purchased Reaction Biology Corporation", "T1 sequence (Q06187 whole entry)": "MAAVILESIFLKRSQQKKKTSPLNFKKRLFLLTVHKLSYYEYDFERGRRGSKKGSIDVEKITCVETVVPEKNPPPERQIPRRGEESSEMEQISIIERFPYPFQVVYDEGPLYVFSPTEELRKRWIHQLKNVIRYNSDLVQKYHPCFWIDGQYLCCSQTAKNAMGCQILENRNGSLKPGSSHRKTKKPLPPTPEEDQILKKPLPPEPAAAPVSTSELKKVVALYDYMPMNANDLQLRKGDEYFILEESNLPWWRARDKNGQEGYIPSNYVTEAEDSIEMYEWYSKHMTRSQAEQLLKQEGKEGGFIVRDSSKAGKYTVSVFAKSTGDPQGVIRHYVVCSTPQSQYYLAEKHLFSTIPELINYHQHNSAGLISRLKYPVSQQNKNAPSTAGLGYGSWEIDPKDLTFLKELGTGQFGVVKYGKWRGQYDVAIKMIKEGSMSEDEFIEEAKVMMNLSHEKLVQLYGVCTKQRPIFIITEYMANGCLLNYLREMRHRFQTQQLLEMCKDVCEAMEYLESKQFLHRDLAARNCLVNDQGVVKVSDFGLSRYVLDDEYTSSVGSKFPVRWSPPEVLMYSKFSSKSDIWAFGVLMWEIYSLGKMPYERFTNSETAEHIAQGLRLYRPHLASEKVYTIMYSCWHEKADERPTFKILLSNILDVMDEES", "experiment": "HotSpot kinase enzymatic assay, BTK-wt", "type": "biochemical", "method": "Kinase enzymatic assays for BTK, BMX, TXK, TEC, ITK, EGFR, ERBB2, ERBB4, and JAK3 were performed at Reaction Biology Corporation (www.reactionbiology.com, Malvern, PA, USA) using the HotSpot assay platform. Briefly, specific kinase/substrate pairs and the required cofactors were prepared in a reaction buffer comprising 20 mM HEPES (pH 7.5), 10 mM MgCl2, 1 mM EGTA, 0.02% Brij35, 0.02 mg/mL BSA, 0.1 mM Na3VO4, 2 mM DTT, and 1% DMSO. The compounds were added to the reaction mixture and allowed to incubate. Approximately 20 min later, a mixture of ATP (Sigma-Aldrich, St. Louis, MO, USA) and ^33P ATP (PerkinElmer, Waltham, MA, USA) was added to the reaction mixture at a final concentration of 10 μM. The reactions were performed at room temperature for 120 min; subsequently, the reactions were spotted onto P81 ion exchange filter papers (Whatman Inc., Maidstone, UK). […] GraphPad Prism software was used to obtain the IC50 values and perform curve fitting."}, "[2]": {"test_system": "IL-6 production in LPS-stimulated THP-1 cells", "experiment": "LPS-induced IL-6 release in THP-1 cells (ELISA)", "type": "cell-based, human", "text": "as §1, §2"}, "CYP2C9": {"target": "T2, CYP2C9 (Homo sapiens, UniProt P11712)", "T2 construct": "purchased Promega V9790", "T2 sequence (P11712 whole entry)": "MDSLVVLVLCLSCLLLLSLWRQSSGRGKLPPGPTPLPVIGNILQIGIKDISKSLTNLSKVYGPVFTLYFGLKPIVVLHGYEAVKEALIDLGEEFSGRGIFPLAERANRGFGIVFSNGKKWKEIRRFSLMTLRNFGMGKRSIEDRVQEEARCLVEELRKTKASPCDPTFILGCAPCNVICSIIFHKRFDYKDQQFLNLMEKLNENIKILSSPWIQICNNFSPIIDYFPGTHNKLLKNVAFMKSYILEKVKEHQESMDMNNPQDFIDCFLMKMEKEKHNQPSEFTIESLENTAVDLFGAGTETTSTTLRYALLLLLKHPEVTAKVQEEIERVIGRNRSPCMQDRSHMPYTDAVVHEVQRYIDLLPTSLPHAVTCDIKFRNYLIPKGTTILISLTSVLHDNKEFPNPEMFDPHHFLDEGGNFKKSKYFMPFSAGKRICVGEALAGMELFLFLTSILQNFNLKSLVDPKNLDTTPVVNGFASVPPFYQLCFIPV", "experiment": "P450-Glo CYP inhibition assay, CYP2C9", "type": "in vitro ADME", "method": "(§3) The potential for CYP450 inhibition (CYP1A2, 2C9, 2C19, 2D6, and […]) was assessed using Promega P450-Glo^TM CYP450 assay systems. Luciferin-ME served as the substrate for CYP1A2, and the inhibitor α-naphthoflavone was used as a positive control. Luciferin-H was used as the substrate for CYP2C9, and the inhibitor sulfaphenazole was used as a positive control. Luciferin-H EGE was selected as the substrate for CYP2C19, whereas the inhibitor amitriptyline served as a positive control. Luciferin-ME EGE was used as the substrate for CYP2D6, whereas the inhibitor quinidine served as a positive control. Luciferin-BE was used as the substrate for CYP3A4, whereas the inhibitor ketoconazole was used as a positive control. The assays were performed using the excitation and emission wavelengths recommended by the manufacturer. Briefly, a CYP enzyme and a P450-Glo™ substrate were combined in potassium phosphate (0.1 M KPO4) buffer, with or without a test compound of interest, and […]. The reaction was initiated by adding two volumes of 2 times concentrated NADPH regeneration system. […] Luminescence was subsequently measured using a Tecan Infinite M1000 PRO microplate reader (Tecan Group Ltd., Switzerland). The percent inhibition was calculated relative to that of the positive control at a fixed concentration. […]"}, "CYP2C19": {"target": "T3, CYP2C19 (Homo sapiens, UniProt P33261)", "T3 construct": "purchased Promega V9880", "T3 sequence (P33261 whole entry)": "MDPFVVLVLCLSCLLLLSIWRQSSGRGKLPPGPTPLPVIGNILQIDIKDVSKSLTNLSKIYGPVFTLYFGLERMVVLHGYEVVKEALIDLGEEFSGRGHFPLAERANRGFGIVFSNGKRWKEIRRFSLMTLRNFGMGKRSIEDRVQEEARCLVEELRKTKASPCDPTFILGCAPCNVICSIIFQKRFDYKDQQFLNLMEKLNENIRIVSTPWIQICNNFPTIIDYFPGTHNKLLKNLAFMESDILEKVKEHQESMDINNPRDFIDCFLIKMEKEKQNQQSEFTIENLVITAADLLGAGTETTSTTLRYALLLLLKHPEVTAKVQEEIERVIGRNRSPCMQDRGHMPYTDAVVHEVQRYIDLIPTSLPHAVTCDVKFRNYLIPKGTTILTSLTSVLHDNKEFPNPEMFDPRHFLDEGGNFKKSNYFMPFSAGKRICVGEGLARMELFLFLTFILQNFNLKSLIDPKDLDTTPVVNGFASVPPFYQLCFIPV", "experiment": "P450-Glo CYP inhibition assay, CYP2C19", "type": "in vitro ADME", "method": "as §3"}, "[3]": {"settings": "LPS-stimulated differentiated THP-1 cells, 24 h, ELISA"}, "[4]": {"settings": "compound at 10 μM, ibrutinib at 2 μM"}, "[5]": {"settings": "% inhibition of human CYP isozymes at 10 μM"}}, "note": "pIC50: −log10 of the molar value. Like-named read-outs stand apart in the source and are kept apart here."}
{"smiles": "C=CC(=O)O[C@H]1Cc2cc3ccc(=O)oc3cc2OC1(C)C", "note": "[Compound 8, (7S)-(+)-Acrylic acid, 8,8-dimethyl-2-oxo-6,7-dihydro-2H,8H-pyrano [3,2-g]chromen-7-yl ester]", "values": [{"measurement": "production of TNF-α", "setting": "[1]; [3]", "result": "significantly and dose-dependently reduced"}, {"measurement": "inhibitory activity on TNF-α production at 10 μM, compared with ibrutinib", "setting": "[1]; [4]", "result": "comparable with that of ibrutinib at 2 μM"}, {"measurement": "inhibition at 10 µM", "setting": "BTK-wt; vs negative control (DMSO), mean of two separate experiments, NA = not active at 10 µM, read-out: % Inhibition (10 µM) BTK-wt", "result": 98.2, "unit": "%"}, {"measurement": "pIC50", "setting": "BTK-wt; HotSpot assay, 10 μM ATP, GraphPad Prism", "result": 6.10}, {"measurement": "inhibition at 10 µM", "setting": "BTK-wt; Table 2 selectivity profile, mean of two experiments, read-out: % Inhibition at 10 µM, BTK", "result": 98.2, "unit": "%"}, {"measurement": "kinase selectivity (in words)", "setting": "BTK-wt; over EGFR and TEC family kinases, JAK3", "result": "selective for BTK over ITK, EGFR, ERBB4, and JAK3"}, {"measurement": "production of IL-6", "setting": "[2]; [3]", "result": "significantly and dose-dependently reduced"}, {"measurement": "inhibitory activity on IL-6 production at 10 μM, compared with ibrutinib", "setting": "[2]; [4]", "result": "comparable with that of ibrutinib at 2 μM"}, {"measurement": "CYP2C9 inhibition (in words)", "setting": "CYP2C9", "result": "moderately inhibited"}, {"measurement": "CYP inhibition 2C9", "setting": "CYP2C9; [5]", "result": 66.1, "unit": "%"}, {"measurement": "CYP2C19 inhibition (in words)", "setting": "CYP2C19", "result": "moderately inhibited"}, {"measurement": "CYP inhibition 2C19", "setting": "CYP2C19; [5]", "result": 48.2, "unit": "%"}]}
